Results published in patent US8063242B2, “2-aryl-propionic acids and pharmaceutical compositions containing them” (Dompe PHA.R.MA S.p.A., priority 2001, dated 2011).

Experiments:
[1] = biological target: T1, CXCR1 (Homo sapiens, UniProt P25024); experiment: IL-8 induced PMN chemotaxis test; assay type: cell-based; details: for inhibition at 1 µM: compound 10^−6 M, IL-8 induced PMN chemotaxis, IL-8 10^−9 M, read-out: % inhibition (C = 10^−6 M); for inhibition at 0.01 µM: read-out: % of inhibition IL-8 (c = 10^−8 M)
T1 construct: endogenous in cells; host or cells: human polymorphonucleate leukocytes (PMNs) from blood of healthy volunteers
T1 sequence (P25024 1-350): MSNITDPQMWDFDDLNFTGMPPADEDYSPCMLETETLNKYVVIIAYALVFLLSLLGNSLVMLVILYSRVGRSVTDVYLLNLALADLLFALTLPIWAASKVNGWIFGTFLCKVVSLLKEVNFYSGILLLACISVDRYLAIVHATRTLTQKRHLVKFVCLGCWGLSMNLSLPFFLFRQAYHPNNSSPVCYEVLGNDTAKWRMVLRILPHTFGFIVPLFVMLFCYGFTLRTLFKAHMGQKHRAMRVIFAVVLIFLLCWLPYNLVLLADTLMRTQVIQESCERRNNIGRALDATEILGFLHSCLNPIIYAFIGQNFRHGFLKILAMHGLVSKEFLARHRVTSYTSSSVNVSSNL
Procedure: (§1) The compounds of the invention of formula (I) were evaluated in vitro for their ability to inhibit chemotaxis of polymorphonucleate leukocytes (hereinafter referred to as PMNs) and monocytes induced by the fractions of IL-8 and GRO-α. For this purpose, in order to isolate the PMNs from heparinized human blood, taken from healthy adult volunteers, mononucleates were removed by means of sedimentation on dextran (according to the procedure disclosed by W. J. Ming et al., J. Immunol., 138, 1469, 1987) and red blood cells by a hypotonic solution. The cell vitality was calculated by exclusion with Trypan blue, whilst the ratio of the circulating polymorphonucleates was estimated on the cytocentrifugate after staining with Diff Quick.
Human recombinant IL-8 (Pepro Tech) was used as stimulating agents in the chemotaxis experiments, giving practically identical results: the lyophilized protein was dissolved in a volume of HBSS containing 0.2% bovin serum albumin (BSA) so thus to […]
(§2) During the chemotaxis assay (according to W. Falket et al., J. Immunol. Methods, 33, 239, 1980) PVP-free filters with a porosity of 5 μm and microchambers suitable for replication were used.
(§3) The compounds of the invention in formula (I) were evaluated at a concentration ranging between 10^−6 and 10^−10 M; for this purpose they were added, at the same concentration, both to the lower pores and the upper pores of the microchamber. Evaluation of the ability of the compounds of the invention of formula (I) to inhibit IL-8-induced chemotaxis of human monocytes was carried out according to the method disclosed by Van Damme J. et al. (Eur. J. Immunol., 19, 2367, 1989).

[2] = biological target: T2, CXCR2 (Homo sapiens, UniProt P25025); experiment: GRO-α induced PMN chemotaxis test; assay type: cell-based; details: compound 10^−8 M, PMN chemotaxis induced by GRO-α; for inhibition at 0.01 µM: read-out: % of inhibition GRO-α (c = 10^−8 M)
T2 construct: endogenous in cells; host or cells: human polymorphonucleate leukocytes (PMNs) from blood of healthy volunteers
T2 sequence (P25025 1-360): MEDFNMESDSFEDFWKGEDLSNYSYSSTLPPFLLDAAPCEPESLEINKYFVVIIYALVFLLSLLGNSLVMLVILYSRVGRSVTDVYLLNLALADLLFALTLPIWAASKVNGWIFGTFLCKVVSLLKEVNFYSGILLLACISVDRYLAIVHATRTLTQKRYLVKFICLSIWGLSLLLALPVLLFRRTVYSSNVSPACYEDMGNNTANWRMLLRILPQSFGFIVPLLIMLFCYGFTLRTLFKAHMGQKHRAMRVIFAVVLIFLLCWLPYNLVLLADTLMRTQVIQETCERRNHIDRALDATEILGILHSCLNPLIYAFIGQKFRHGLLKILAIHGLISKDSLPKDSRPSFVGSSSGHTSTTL
Procedure: as §1, §2, §3
In the table below, biological activities of compounds showing high potency in the inhibition of PMN chemotaxis induced as by IL-8 as by the selective CXCR2 agonist GRO-α are reported.

[3] = compound 10^−8 M, PMN chemotaxis induced by IL-8

Row | Compound | inhibition at 1 µM [1] [%] | inhibition at 0.01 µM [2] [%] | inhibition at 0.01 µM [1, 3] [%] | also measured
1 | CC(C(=O)O)c1ccccc1Oc1c(Cl)cccc1Cl (racemic) [Example 25, (R,S) 2-[2′-(2″,6″-dichloro)phenoxy]phenylpropionic acid] | 41 ± 9 |  |  | 
2 | C[C@@H](C(=O)O)c1ccc(NS(=O)(=O)c2ccccc2)cc1 [Example 27] |  |  |  | % of inhibition GRO-α (c = 10^−8 M) [2]: 33 ± 11+ %; % of inhibition IL-8 (c = 10^−8 M) [1, 3]: 49 ± 11%
3 | C[C@@H](C(=O)O)c1ccc(NS(=O)(=O)c2ccccc2Cl)cc1 [Example 32, (R) 2-[4′-(2″-chloro)benzenesulfonylamino]phenylpropionic acid] |  | 66 ± 10 | -2 ± 10 | 
4 | CC(C(=O)O)c1ccccc1Nc1c(Cl)cccc1Cl (racemic) [Example 18, (R,S) 2-[2′-(2″,6″-dichlorophenyl)aminophenylpropionic acid] | 52 ± 3 |  |  | 
5 | C[C@@H](C(=O)O)c1ccc(OS(=O)(=O)C(F)(F)F)cc1 [Example 37, (R) 2-(4′-trifluoromethanesulfonyloxy)phenylpropionic acid] |  | 59 ± 10 | 62 ± 7 | 
6 | CCC(CC)c1cccc(C(C)C(=O)O)c1 (racemic) [Example 6, (R,S) 2-[3′-(alpha-ethyl-propyl)phenyl]propionic acid] | 58 ± 2 |  |  | 
7 | CC(C)S(=O)(=O)Oc1ccc([C@@H](C)C(=O)O)cc1 [Example 38, (R) 2-[4′-(2″-propane)sulfonyloxy]phenylpropionic acid] |  | 46 ± 6 | 49 ± 8 | 
8 | C[C@@H](C(=O)O)c1ccc(CS(=O)(=O)c2ccccc2)cc1 [Example 42, (R) 2-(4′-benzenesulfonylmethyl)phenylpropionic acid] |  | 52 ± 5 | 60 ± 7 | 
9 | C[C@@H](C(=O)O)c1ccc(NS(=O)(=O)Cc2ccccc2)cc1 [Example 31, (R) 2-(4′-benzylsulfonylamino)phenylpropionic acid] |  | 24 ± 8 | 60 ± 10 | 
10 | C[C@@H](C(=O)O)c1ccc(NS(C)(=O)=O)cc1 [Example 28, (R) 2-(4′-methanesulfonylamino)phenylpropionic acid] |  | 32 ± 5 | 25 ± 7 | 
11 | C[C@@H](C(=O)O)c1ccc(OS(=O)(=O)c2ccccc2Cl)cc1 [Example 39, (R) 2-[4′-(2″-chloro)benzenesulfonyloxy]phenylpropionic acid] |  | 65 ± 10 | 25 ± 7 | 
12 | C[C@@H](C(=O)O)c1ccc(OS(=O)(=O)Cc2ccccc2)cc1 [Example 36, (R) 2-(4′-benzylsulfonyloxy)phenylpropionic acid] |  | 25 ± 11 | 59 ± 11 | 
13 | CC(C(=O)O)c1cccc(C(C)c2ccccc2)c1 (stereo not drawn) [Example 7] | 54 ± 4 |  |  | 
14 | CCc1ccccc1S(=O)(=O)Oc1ccc([C@@H](C)C(=O)O)cc1 [Example 40, (R) 2-[4′-(2″-ethyl)benzenesulfonyloxy]phenylpropionic acid] |  | 70 ± 10 | 45 ± 13 | 
15 | C[C@@H](C(=O)O)c1ccc(CS(=O)(=O)C(F)(F)F)cc1 [Example 43, (R) 2-(4′-trifluoromethanesulfonylmethyl)phenylpropionic acid] |  | 45 ± 7 | 48 ± 7 | 
16 | C[C@H](C(=O)O)c1ccccc1Nc1c(Cl)cccc1Cl [Example 20] | 50 ± 7 |  |  | 
17 | CC(O)c1cccc(C(C)C(=O)O)c1 [Example 16, (R,S), (R,S) 2-[3′-(alpha-hydroxy-ethyl)phenyl]propionic acid] | 57 ± 6 |  |  | 
18 | C[C@@H](C(=O)O)c1ccc(NS(=O)(=O)C(F)(F)F)cc1 [Example 30, (R) 2-(4′-trifluoromethanesulfonylamino)phenylpropionic acid] |  | 40 ± 14 | 8 ± 10 | 
19 | CC(C)S(=O)(=O)Nc1ccc([C@@H](C)C(=O)O)cc1 [Example 29, (R) 2-[4′-(2″-propane)sulfonylamino]phenylpropionic acid] |  | 44 ± 12 | 54 ± 14 | 
20 | CC(C)c1cccc([C@@H](C)C(=O)O)c1 [Example 10, (R)-2-[(3′-isopropyl)phenyl]-propionic acid] | 43 ± 18 |  |  | 
21 | C[C@@H](C(=O)O)c1ccccc1Nc1c(Cl)cccc1Cl [Example 19] | 46 ± 14 |  |  | 
22 | CCc1ccccc1S(=O)(=O)Nc1ccc([C@@H](C)C(=O)O)cc1 [Example 33, (R) 2-[4′-(2″-ethyl)benzenesulfonylamino]phenylpropionic acid] |  | 80 ± 10 | 44 ± 14 | 
23 | C[C@@H](C(=O)O)c1ccc(OS(N)(=O)=O)cc1 [Example 41, (R) 2-(4′-aminosulfonyloxy)phenylpropionic acid] |  | 5 ± 7 | 65 ± 10 | 
24 | C[C@@H](C(=O)O)c1ccc(NS(N)(=O)=O)cc1 [Example 34, (R) 2-(4′-aminosulfonylamino)phenylpropionic acid] |  | 2 ± 5 | 55 ± 10 | 
25 | CC(C)c1cccc(C(C)C(=O)O)c1 (stereo not drawn) [Example 5, 2-[(3′-isopropyl)phenyl]propionic acid] | 51 ± 12 |  |  | 
26 | CC(C)c1cccc([C@H](C)C(=O)O)c1 [Example 14, (S)-2-[(3′-isopropyl)phenyl]-propionic acid] | 50 ± 9 |  |  | 
